These results are taken from US9855226B2 (Relmada Therapeutics, Inc., priority 2012, dated 2018).

In series [1] the test system is relatively refractory population with major depression. Particulars: single dose; cited from earlier work.
In series [2] the test system is subjects with major depression. The settings on record: single dose, 8 subjects; cited from earlier work.
Another series deals with male Wistar rats. The settings on record: single dose; cited from earlier work.
Series [3] deals with T1, N-methyl-D-aspartate (NMDA) receptor (Rattus norvegicus, UniProt P35439).
T1 construct: N-methyl-D-aspartate (NMDA) receptor in rat forebrain and spinal cord
The settings on record: cited from earlier work.

In series [4] the test system is patients with chronic pain. The settings on record: average of eight patients.
The subject of series [5] is patients with chronic pain.
[6] abbreviates: day 12 of d-methadone 40 mg every 12 hours.
[7] abbreviates: 8 patients that completed and 1 removed, 40 mg PO q12 hr.

Structures are written as SMILES.

As for `CNC1(c2ccccc2Cl)CCCCC1=O` (stereo not shown) [ketamine], in series [1], the “Duration of antidepressant response (relatively sustained)” value is on record as 1 week and the “Time to antidepressant response (rapid)” value is 110 min. Also, the Antidepressant effect entry in series [2] was “rapid and short-lived antidepressant effect”. The “Duration of interference with the induction of behavioral despair” value with male Wistar rats is on record as “up to 10 days”.

In the case of `CCC(=O)C(C[C@H](C)N(C)C)(c1ccccc1)c1ccccc1` [d-methadone], the NMDA receptor antagonism result in series [3] is reported as “NMDA antagonists”. Besides, in series [4] (baseline (day 1)), the “Anxiety, Baseline, average score” value was determined as 2.5; the “Drowsiness, Baseline, average score” value was found to be 4.1; the “Pain, Baseline, average score” value came to 4.1; the “Tiredness, Baseline, average score” value was determined as 5.9. In series [4] (setting [6]), the “Anxiety, Day 12, average score” value worked out at 1.5; the “Drowsiness, Day 12, average score” value was found to be 2.9; the “Pain, Day 12, average score” value is reported as 4.1; the “Tiredness, Day 12, average score” value was determined as 3.6. Besides, the Tolerability entry in series [5] (40 mg PO Q 12 hours for 12 days, patients with chronic pain and multiple co morbidities) is reported as “well tolerated”. In series [5] (setting [7]), the “Back pain: # of patients” value came to 1, the “Headache (first line): # of patients” value came to 1, the “Headache (second line): # of patients” value came out at 1 and the “Somnolence (Neurology): # of patients” value turned out to be 2. In addition, the “Tremor (Neurology): # of patients” value in series [5] (setting [7]) is given as 1. In addition, in series [5] (CTCAE v3.0), the “Back pain: Attribution” value is listed as 3, the “Back pain: Grade (1-5)” value is 1, the “Headache (first line): Attribution” value turned out to be 3 and the “Headache (first line): Grade (1-5)” value was 1. For the same compound, in series [5] (CTCAE v3.0), the “Headache (second line): Attribution” value turned out to be 4, the “Headache (second line): Grade (1-5)” value is given as 1, the “Somnolence (Neurology): Attribution” value worked out at 3 and the “Somnolence (Neurology): Grade (1-5)” value turned out to be 2. In addition, in series [5] (CTCAE v3.0), the “Tremor (Neurology): Attribution” value came to 3 and the “Tremor (Neurology): Grade (1-5)” value amounted to 1. Further, in series [5] (very sick patients with severe cancer pain), the “Patients' perception of analgesia” value is reported as “recognized it as an effective analgesic”.

Turning to `CCC(=O)C(C[C@@H](C)N(C)C)(c1ccccc1)c1ccccc1` [l-methadone, reference compound], the NMDA receptor antagonism result in series [3] was “NMDA antagonists”.
